{"source": "patent US20240374550A1", "about": "“GINGERENONE A PRODRUGS AND METHODS OF USE” (The U.S.A., as Represented by the Secretary, Department of …, priority 2022, published 2024)", "key": {"[1]": {"test_system": "senescent WI-38 fibroblasts", "experiment": "MTT cell viability assay, IR-induced senescent WI-38 fibroblasts", "format": "cell-based, human", "conditions": "for senolytic activity (ability to selectively decrease cell viability of senescent cells): 72 h, ginger components at 100 μM, 6-shogaol 3.6 μM, 8-shogaol 33 μM, 6-gingerol 20 μM; for senescent cell viability: D+Q (dasatinib 250 nM + quercetin 10 μM), gingerenone A 20 μM, 6-shogaol 72.4 nM", "experimental": "Cell culture and treatments: WI-38 human diploid fibroblasts (HDFs) were cultured in Dulbecco's modified Eagle's medium (DMEM) supplemented with 10% heat-inactivated fetal bovine serum (FBS), penicillin and streptomycin, and non-essential amino acids at 37° C. in a 5% CO2 incubator. HDFs were rendered senescent by exposure to 10 Gy of ionizing radiation (IR) and then cultured for an additional ten days. Proliferating and senescent WI-38 cells were seeded in triplicate overnight at 2×10^5 cells/well (in 6 well plates) to achieve ˜60% confluence by the next day. Cells were then treated with the extracts for times indicated. […]\nMTT cell viability: The MTT assay (Bio Vision Milpitas, CA) was carried out following the manufacturer's protocol. Briefly, the media was gently removed from each well and 50 μl of serum-free medium+50 μl of Solution A were added to each well. The plates were incubated at 37° C. for MTT reduction into formazan for 3 h. Next, 150 μl Solution B was added to each well and the plate was covered with foil and shaken at 600 rpm for 15 min. The absorbance was measured at 590 nm using Enspire, Perkin Elmer Multimode plate reader. […]\nWI-38 fibroblasts were rendered senescent by exposure to ionizing radiation (IR, 10 Gy) and cultured for an additional 10 days. […] Data represent the means and standard error from three biological replicates. The major components of ginger extract, namely 6-gingerol, 8-gingerol, 10-gingerol, 6-shogaol, 8-shogaol, gingerenone A, and zingerone, were screened for their ability to selectively decrease cell viability of senescent cells using the MTT assay (FIG. 10A)."}, "[2]": {"test_system": "SASP cytokines and chemokines secreted by senescent WI-38 fibroblasts", "experiment": "Secreted protein analysis (ELISA, Luminex multiplex, V-PLEX) of SASP factors", "format": "cell-based, human", "conditions": "24 h", "experimental": "Secreted protein analysis-ELISA, Luminex Multiplex and V-PLEX: Media was collected at the earliest timepoint (24 h after treatments) to avoid cell death that could interfere with the assay. The media was centrifuged at 1000×g for 5 min to remove debris. The secretion of IL-6 was measured by the Quantikine ELISA Kit (R&D systems) and the expression of pro-inflammatory cytokines and chemokines [IL-6, TNFα, CCL2 (MCP-1), IL-8, IFNß] was also assessed by multiplex assays (customized Luminex plate, R&D) according to the manufacturer's instructions. The V-PLEX Plus Proinflammatory Panel 1 Human Kit and the Chemokine Panel 1 preparation and detection were carried out following the manufacturer's protocol (Mesoscale Diagnostics) using >80% confluency of proliferating or senescent cells on 24-well plates. Briefly, different concentrations of standards and samples were added to the plates, and they were incubated for 2 h on a microplate shaker. The plates were washed, and the corresponding detection antibody mixture was added to each well and incubated for 1 h with shaking. The plates were washed twice then Read buffer was added to each well. The plates were read on the MESO Quickplex SQ 120 (MSD, Rockville, MD) and protein concentrations were determined using MSD Discovery workbench 4.0. The effects of gingerenone A, 6-shogaol and D+Q on cytokines and chemokines that are known to be part of the senescence-associated secretory phenotype (SASP) were tested. WI-38 fibroblasts were rendered senescent by exposure to ionizing radiation (IR, 10 Gy) and cultured for an additional 10 days. Cells were then treated with gingerenone A (20 μM) and 6-shogaol (72.4 nM) and incubated for 24 h. CCL-2 (MCP-1) and IL-10 were measured using the Bio-plex (Multiplex); IL6 was measured using Quantikine IL-6 (R&D) (FIG. 12A). Data were normalized to cell number/total protein content. Data in graphs represent the means and standard error from three biological replicates. […] Ratios of cleaved pro-caspase 3 to total caspase 3, normalized to ACTB levels, are shown as relative to control proliferating cells. Cytokines (FIG. 13A) and chemokines (FIG. 13B) were measured using the V-plex panel (MSD) after treatment for 24 h with the indicated drugs. Relative secretion was measured as pg/ml vs control normalized on TE. Data in the graphs represent the means and standard error from three biological replicates."}, "[3]": {"test_system": "proliferating WI-38 fibroblasts", "experiment": "MTT cell viability assay, proliferating WI-38 fibroblasts", "format": "cell-based, human", "conditions": "48 h; D+Q (dasatinib 250 nM + quercetin 10 μM), gingerenone A 20 μM, 6-shogaol 72.4 nM", "experimental": "Cell culture and treatments: WI-38 human diploid fibroblasts (HDFs) were cultured in Dulbecco's modified Eagle's medium (DMEM) supplemented with 10% heat-inactivated fetal bovine serum (FBS), penicillin and streptomycin, and non-essential amino acids at 37° C. in a 5% CO2 incubator. HDFs were rendered senescent by exposure to 10 Gy of ionizing radiation (IR) and then cultured for an additional ten days. Proliferating and senescent WI-38 cells were seeded in triplicate overnight at 2×10^5 cells/well (in 6 well plates) to achieve ˜60% confluence by the next day. Cells were then treated with the extracts for times indicated.\nIn 24-well plates, cells were treated with multiple dilutions (1:200 and 1:500) of Harpagophytum procumbens (Devil's Claw) (herb to menstruum ratio, 1:3), Uncaria tomentosa (Cat's Claw) (herb to menstruum ratio, 1:3), Zingiber officinale Rosc. […]\nMTT cell viability: The MTT assay (Bio Vision Milpitas, CA) was carried out following the manufacturer's protocol. […] The absorbance was measured at 590 nm using Enspire, Perkin Elmer Multimode plate reader.\nFour plant extracts were screened for senolytic activity, including extracts from Harpagophytum procumbens (Devil's Claw), Uncaria tomentosa (Cat's Claw), Zingiber officinale Rosc. […] In FIG. 8B, the impact on ginger extract on proliferating and senescent cells on cell survival was assessed by the MTT cell viability assay. […]"}, "[4]": {"test_system": "p53, Bcl-XL, cleaved caspase-3 in proliferating and senescent WI-38 fibroblasts", "experiment": "Western blot protein analysis (p53, Bcl-XL, cleaved caspase-3)", "format": "cell-based, human", "conditions": "48 h, senescent cells", "experimental": "Protein analysis: Cells were lysed in RIPA lysis buffer (Pierce, ThermoFisher) containing protease and phosphatase inhibitors (Roche) and incubated on ice for 10 min. The lysates were then sonicated for 5 min and centrifuged for 10 min at 4° C. to remove the insoluble fraction. The remaining supernatant was the whole-cell lysate. Lysates were separated by SDS-polyacrylamide gel electrophoresis (SDS-PAGE) and transferred onto nitrocellulose membranes (Biorad). Incubations with primary antibodies recognizing p21, p53, Beta-Actin (ACTB) (Santa Cruz Biotechnology), as well as caspase-3 (Abcam) and Bcl-XL (Cell Signaling) were followed by incubations with the appropriate secondary antibodies conjugated with horseradish peroxidase (GE Healthcare). Signals were developed using Enhanced Chemiluminescence (ECL) and acquired by using the ChemiDoc MP Imaging System (BioRad).\nThe effects of gingerenone A, 6-shogaol and D+Q on cytokines and chemokines that are known to be part of the senescence-associated secretory phenotype (SASP) were tested. WI-38 fibroblasts were rendered senescent by exposure to ionizing radiation (IR, 10 Gy) and cultured for an additional 10 days. Cells were then treated with gingerenone A (20 μM) and 6-shogaol (72.4 nM) and incubated for 24 h. CCL-2 (MCP-1) and IL-10 were measured using the Bio-plex (Multiplex); IL6 was measured using Quantikine IL-6 (R&D) (FIG. 12A). Data were normalized to cell number/total protein content. Data in graphs represent the means and standard error from three biological replicates. […] Ratios of cleaved pro-caspase 3 to total caspase 3, normalized to ACTB levels, are shown as relative to control proliferating cells. Cytokines (FIG. 13A) and chemokines (FIG. 13B) were measured using the V-plex panel (MSD) after treatment for 24 h with the indicated drugs. Relative secretion was measured as pg/ml vs control normalized on TE. Data in the graphs represent the means and standard error from three biological replicates.\nTo determine whether gingerenone A and 6-shogaol might influence the apoptotic pathway, their effect on the levels of cleaved caspase-3 (pro-apoptotic marker), and Bcl-XL (anti-apoptotic protein) (FIG. 12B) was tested."}, "[5]": {"test_system": "circulating cytokines/chemokines in serum", "experiment": "Chronic administration, serum cytokines/chemokines", "format": "in vivo, C57BL/6JN mice", "conditions": "GinA 10 mg/kg/day, modGinA 27 mg/kg/day, 10 weeks", "experimental": "(§1) A chronic administration of GinA (10 mg/kg/day; 1.8 mg/mL) and modGinA (27 mg/kg/day, 4.8 mg/mL) or vehicle (high oleic sunflower oil) was carried out daily for 10 weeks in C57BL/6JN mice (79-80 weeks old). The serum was analyzed for circulating levels of cytokines/chemokines during treatment (9th week) and 10 days after cessation of drug administration. […] FIGS. 16A and 16B show circulating levels of IL-5 in serum during treatment (9 weeks; FIG. 16A) and after treatment (FIG. 16B) with daily oral administration of 10 mg/kg of GinA or 27 mg/kg of modGinA. IL-5 was significant in post treatment using the unadjusted Kruskal-Wallace test between the three groups (vehicle, GinA and modGinA) and unadjusted unpaired t-test between either group and vehicle and during treatment using unadjusted unpaired t-test in the modGinA treatment group."}, "[6]": {"test_system": "circulating metabolites and lipid species in serum", "experiment": "Chronic administration, serum metabolomic and lipid analysis", "format": "in vivo, C57BL/6J male mice", "conditions": "daily oral GinA 10 mg/kg or modGinA 27 mg/kg, at 9 weeks, compared to vehicle", "experimental": "as §1\nAdditionally, modGinA administration increased circulating levels of multiple DHA- and EPA-containing lipid species, including phospholipids and cholesterol esters during treatment."}, "[7]": {"experiment": "in vivo", "conditions": "male, C57BL/6J, mouse, po, 10 mg/kg", "procedure": "Gingerenone A Quantification: The analysis of Gingerenone A, EPA and DHA was accomplished using a Phenomencx® Security Guard® C18 column (4 x3 mm ID, Phenomenex, Torrance, CA) and a Waters™ Xbridge® C18 3.5 μm column (2.1 mm×100 mm, Waters Corporation, Milford, MA). The mobile phase consisted of 5 mM ammonium formate and 0.1% formic acid as component A and acetonitrile as component B. A linear gradient was run as follows: 0 min 10% B; 1 min 10% B, 5 min 90% B; 10 min 90% B; 10.1 min 10% B at a flow rate of 0.2 mL/min, with an oven temperature at 40° C. The total run time was 15 min per sample. […] For DHA, the TIS compound parameter settings (declustering potential, collision energy and cell exit potential) for MRM was −135 V, —14 V and −13 V and for naringenin MRM was −100 V, —24 V and −10 V, and MRM2 was −100V, —33 V and −10 V. The data were acquired and analyzed using Analyst version 1.4.2 (Applied Biosystems). The relative quantitation of gingerenone A, EPA and DHA was accomplished by using the area under the curves. […] For the quantitation of gingerenone A, a seven-point calibration curve (12.5 to 0.097 ng/ml) was carried out. […]\nThe peak areas in circulating gingerenone A levels were measured as described above in the Methods section."}}, "note": "Entries after “also recorded” stand apart in the source; their conditions may differ.", "data": [{"smiles": "CCCCC[C@H](O)CC(=O)CCc1ccc(O)c(OC)c1", "note": "[6-gingerol]", "values": [{"measurement": "senolytic activity (ability to selectively decrease cell viability of senescent cells)", "setting": "[1]", "value": "only 6-shogaol and gingerenone A displayed senolytic activity"}]}, {"smiles": "CCCCC/C=C/C(=O)CCc1ccc(O)c(OC)c1", "note": "[6-shogaol]", "values": [{"measurement": "changes in any of the cytokines and chemokines measured", "setting": "[2]; 72.4 nM", "value": "did not induce major changes"}, {"measurement": "effect on proliferating cells", "setting": "[3]", "value": "significant increase"}, {"measurement": "expression of anti-apoptotic protein Bcl-XL", "setting": "[4]", "value": "reduced"}, {"measurement": "levels of pro-apoptotic protein cleaved caspase-3", "setting": "[4]", "value": "increase"}, {"measurement": "senescent cell viability", "setting": "[1]; 48 h", "value": "moderate degree of cell death"}, {"measurement": "senolytic activity (ability to selectively decrease cell viability of senescent cells)", "setting": "[1]", "value": "displayed senolytic activity"}]}, {"smiles": "CCCCCCC[C@H](O)CC(=O)CCc1ccc(O)c(OC)c1", "note": "[8-gingerol]", "values": [{"measurement": "senolytic activity (ability to selectively decrease cell viability of senescent cells)", "setting": "[1]", "value": "only 6-shogaol and gingerenone A displayed senolytic activity"}]}, {"smiles": "CCCCCCC/C=C/C(=O)CCc1ccc(O)c(OC)c1", "note": "[8-shogaol]", "values": [{"measurement": "senolytic activity (ability to selectively decrease cell viability of senescent cells)", "setting": "[1]", "value": "only 6-shogaol and gingerenone A displayed senolytic activity"}]}, {"smiles": "CCCCCCCCC[C@H](O)CC(=O)CCc1ccc(O)c(OC)c1", "note": "[10-gingerol]", "values": [{"measurement": "senolytic activity (ability to selectively decrease cell viability of senescent cells)", "setting": "[1]", "value": "only 6-shogaol and gingerenone A displayed senolytic activity"}]}, {"smiles": "COc1cc(CC/C=C/C(=O)CCc2ccc(O)c(OC)c2)ccc1O", "note": "[gingerenone A, Gingerenone A]", "values": [{"measurement": "serum IL-5", "setting": "[5]; post treatment, unadjusted unpaired t-test vs vehicle", "value": "reduced"}, {"measurement": "serum IL-2", "setting": "[5]; ten days after termination", "value": "reduced"}, {"measurement": "serum concentration of beta-alanine", "setting": "[6]", "value": "did not increase"}, {"measurement": "serum concentration of choline", "setting": "[6]", "value": "did not increase"}, {"measurement": "level of IL-1β", "setting": "[2]; 20 μM", "value": "increased"}, {"measurement": "level of IL-13", "setting": "[2]; 20 μM", "value": "increased"}, {"measurement": "level of IL-10", "setting": "[2]; 20 μM, multiplex ELISA (FIG. 12A)", "value": "increased"}, {"measurement": "level of IL-10", "setting": "[2]; V-Plex (FIG. 13A)", "value": "unchanged"}, {"measurement": "level of IL-8", "setting": "[2]; gingerenone A 20 μM, D+Q", "value": "increased"}, {"measurement": "secreted level of CCL2 (MCP-1)", "setting": "[2]; gingerenone A 20 μM, D+Q", "value": "reduced"}, {"measurement": "secreted level of IL-6", "setting": "[2]; gingerenone A 20 μM, D+Q", "value": "reduced"}, {"measurement": "secreted level of IP-10", "setting": "[2]; gingerenone A 20 μM, D+Q, V-plex", "value": "reduced"}, {"measurement": "effect on proliferating cells", "setting": "[3]", "value": "did not show any significant effect"}, {"measurement": "expression of anti-apoptotic protein Bcl-XL", "setting": "[4]", "value": "reduced"}, {"measurement": "levels of pro-apoptotic protein cleaved caspase-3", "setting": "[4]", "value": "increase"}, {"measurement": "senescent cell viability relative to proliferating cells", "setting": "[1]; 20 μM, 48 h, p=0.04", "value": "significant decrease; also recorded: significantly decreased"}, {"measurement": "selectivity for senescent over proliferating cells", "setting": "[1]; 48 h, 20 μM, compared to D+Q", "value": "higher selectivity"}, {"measurement": "senescent cell viability", "setting": "[1]; 48 h", "value": "significantly decreased"}, {"measurement": "senolytic activity (ability to selectively decrease cell viability of senescent cells)", "setting": "[1]", "value": "displayed senolytic activity"}, {"measurement": "AUC", "setting": "[7]", "value": 1.25, "unit": "ng·h/mL"}]}, {"smiles": "COc1cc(CCC(C)=O)ccc1O", "note": "[zingerone]", "values": [{"measurement": "senolytic activity (ability to selectively decrease cell viability of senescent cells)", "setting": "[1]", "value": "only 6-shogaol and gingerenone A displayed senolytic activity"}]}]}
